# Key:
# [1] = tested on: MelJuso (HRASG13D and NRASQ61L); assay: Cell viability screen, CellTiter-Glo, 72 h; format: cell-based, human; conditions: ATP content/viability
# Experimental: (§1) Figure 1: Optimization of Potency and Drug Properties of Small Molecule Inhibitors of Ras- and Raf-mutant Cells using Viability Screens. (A) Cell viability screen of ~300 small molecules in A549 (KRASG12S), LOX IMVI (BRAFV600E), and MelJuso (HRASG13D and NRASQ61L). Cells were treated with vehicle DMSO or increasing concentrations of small molecules in triplicate for 72 h and ATP content/viability was measured using CellTiter-Glo Luminescent Cell Viability Assay. The results shown for all cell viability figures are representative of at least two independent experiments. […] (C) Evolution of the Structure Activity Relationship (SAR) and IC50s of the first (68) and last (249C | lead due to drug-like properties) compounds in the screen. (D) 249C sensitivity for a panel of 53 cancer cell lines (including lung, pancreatic, breast, ovarian, hematological/liver, prostate, colorectal cancers, glioma and melanoma). […] (F) Quantitative whole proteome analysis of the effects of small molecule treatment by mass spectrometry. A549 cells were treated with DMSO or 68 (30 μM), 226C (1μM) or 249C (1μM) for 48 h prior to analysis of proteomes with TMT labeling followed by quantification relative to the DMSO control. […]
# LOX IMVI (BRAFV600E) = assay: Cell viability screen, CellTiter-Glo, 72 h; format: cell-based; conditions: Homo sapiens, ATP content/viability
# Experimental: as §1
# A549 (KRASG12S) = assay: Cell viability screen, CellTiter-Glo, 72 h; format: cell-based; conditions: Homo sapiens, ATP content/viability
# Experimental: as §1
# [2] = tested on: SW48 KRASG13D/+ xenografts; assay: SW48 isogenic colon xenograft; format: in vivo, mouse; conditions: 10 mg/kg i.p., 14 days of treatment
# From the text: (§2) To explore the relationship between individual KRAS mutants and 249C sensitivity in vivo, we used a colon cancer (SW48) xenograft model with a set of colon cancer cell lines which differ in KRAS mutation status but are otherwise genetically matched. Stable derivatives of the SW48 cell line were derived by introducing a KRASG12D, KRASG12V or KRASG13D point mutation via rrAV gene editing technology previously reported. To compare KRAS mutants in a cancer-relevant system, four cell lines: (SW48, SW48 KRASG12D/+, SW48 KRASG12V/+ and SW48 KRASG13D/+) were injected into athymic mice and 14 days of treatment (10 mg/kg 249C or vehicle control, i.p., n = 5 for all arms) was started when the average tumor volume reached approximately 100–200 mm^3 following random segregation into groups. As before, KRASG13D tumors were most sensitive to 249C both in vitro and in vivo (Fig. 6d–e). […] Changes in tumor volume are presented for animals bearing isogenic SW48 cells: parental/KRASWT (Fig. 6f), KRASG12D/+ (Fig. 6g), KRASG12V/+, (Fig. 6h), KRASG13D/+ (Fig. 6i). Note that SW48 tumors with different KRAS variants show different basal growth rates, as reported previously. […] Further, no significant changes in body weight of the mice were observed during the study (Fig. 6j).
# (§3) For cell line xenografts, 6 × 10^6 SW48 cells were subcutaneously injected into the flanks of 6–8-week old athymic nude female mice (Taconic model # NCRNU-F, CrTac:NCR-Foxn1 sp/sp) and tumor growth was monitored with caliper measurement. Once the mean tumor reached a certain volume (between 100–200 mm^3), animals were randomized into different treatment groups of 5 animals per group. 249C for in vivo use was formulated in 0.5% Methylcellulose and dosed i.p. (10 mg/kg, for 2 weeks). Antitumor activity was determined by calculating the treatment over control (T/C) tumor volume ratio at the end of the study. Either at the end of each study, of if any animal reached a humane endpoint, animals were euthanized with CO2 followed by cervical dislocation or another secondary method of euthanasia approved by the IACUC protocol. Mouse manipulations were performed in accordance with UCSF’s IACUC protocol AN179973.Mice were housed in the UCSF Animal Care Facility LARC at the Helen Diller Family Cancer Center at UCSF Mission Bay. Mice were housed in a specific-pathogen free individual suite. They are housed up to 5 per cage in ventilator cages, with ad libitum food and water on a 12-hour light cycle and controlled temperature and humidity conditions (67–74°F and 30–70%).
# [3] = tested on: SW48 KRASG12V/+ xenografts; assay: SW48 isogenic colon xenograft; format: in vivo, mouse; conditions: 10 mg/kg i.p., 14 days of treatment
# From the text: as §2, §3
# [4] = tested on: SW48 KRASG12D/+ xenografts; assay: SW48 isogenic colon xenograft; format: in vivo, mouse; conditions: 10 mg/kg i.p., 14 days of treatment
# From the text: as §2, §3
# [5] = tested on: SW48 parental (KRAS WT) xenografts; assay: SW48 isogenic colon xenograft; format: in vivo, mouse; conditions: 10 mg/kg i.p., 14 days of treatment
# From the text: as §2, §3
# MEFs KRAS Q61R = assay: Cell proliferation of Ras-less MEFs expressing human KRAS/BRAF; conditions: Mus musculus
# Experimental: Logarithmically growing cells were plated in antibiotic-free medium supplemented with 2% fetal bovine serum at a density of 5,000 cells per well. The next day, cells were treated in triplicates with increasing doses of in-house small molecule inhibitor drugs and a DMSO vehicle control for 3 days and subsequently assessed for cell viability by measurement of ATP with CellTiter-Glo Luminescent Cell Viability Assay (Promega). Signal intensity was read on a Glomax™ 96 Microplate Luminometer (Promega) with GLOMAX software (version 1.9.3) and percent cell survival was calculated based on the reading of vehicle control cells set as 100% using Excel (2012) and GraphPad Prism (version 6)Each compound was tested a minimum of 2 times with n = 3. All cell proliferation assays (cancer cell lines or MEFs) were done in a similar way.
# hERG = hERG (Homo sapiens, UniProt Q12809); assay: hERG fluorescence polarization assay; conditions: human
# hERG, sequence (Q12809 whole entry): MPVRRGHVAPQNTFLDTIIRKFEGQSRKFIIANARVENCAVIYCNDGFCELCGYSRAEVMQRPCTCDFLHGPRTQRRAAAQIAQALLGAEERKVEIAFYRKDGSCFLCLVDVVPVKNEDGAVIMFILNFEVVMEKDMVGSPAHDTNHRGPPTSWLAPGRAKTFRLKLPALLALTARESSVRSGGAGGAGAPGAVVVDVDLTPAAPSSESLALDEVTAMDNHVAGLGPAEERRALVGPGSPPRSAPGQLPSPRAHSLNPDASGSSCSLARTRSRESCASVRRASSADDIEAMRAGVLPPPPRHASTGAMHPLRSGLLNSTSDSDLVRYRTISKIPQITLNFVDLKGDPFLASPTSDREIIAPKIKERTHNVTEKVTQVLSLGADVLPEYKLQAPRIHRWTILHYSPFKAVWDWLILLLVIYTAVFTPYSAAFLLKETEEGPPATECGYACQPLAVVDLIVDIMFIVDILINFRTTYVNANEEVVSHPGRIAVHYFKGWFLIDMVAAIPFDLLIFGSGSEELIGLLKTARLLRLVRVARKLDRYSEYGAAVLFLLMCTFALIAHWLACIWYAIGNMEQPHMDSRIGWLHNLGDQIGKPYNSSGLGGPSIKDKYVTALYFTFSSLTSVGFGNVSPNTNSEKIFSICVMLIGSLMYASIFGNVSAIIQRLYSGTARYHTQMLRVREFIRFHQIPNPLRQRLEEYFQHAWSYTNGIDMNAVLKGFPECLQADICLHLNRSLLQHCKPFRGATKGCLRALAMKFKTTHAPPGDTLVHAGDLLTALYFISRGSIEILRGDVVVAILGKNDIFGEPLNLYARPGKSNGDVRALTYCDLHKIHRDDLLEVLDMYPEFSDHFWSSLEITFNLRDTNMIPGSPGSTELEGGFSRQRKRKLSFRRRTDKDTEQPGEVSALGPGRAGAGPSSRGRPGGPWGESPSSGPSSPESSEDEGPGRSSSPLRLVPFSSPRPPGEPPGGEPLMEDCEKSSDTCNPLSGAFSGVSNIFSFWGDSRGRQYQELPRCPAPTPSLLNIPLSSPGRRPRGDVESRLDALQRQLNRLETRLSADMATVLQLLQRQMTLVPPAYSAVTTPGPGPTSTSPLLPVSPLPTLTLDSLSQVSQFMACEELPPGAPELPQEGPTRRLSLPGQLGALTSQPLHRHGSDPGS
structure (smiles),measurement,setting,value
CN1CCOC(CNC(=O)C2(C)C(c3ccc(Cl)o3)C(c3ccc(F)cc3F)=NN2c2ccc(F)cc2F)C1 (stereo not shown) [Compound 249C],IC50,[1]; listed as 002-249C,21.9 nM
same,IC50,"[1]; Homo sapiens, MEL-JUSO",22 nM
same,IC50,LOX IMVI (BRAFV600E),60 nM
same,IC50,A549 (KRASG12S),73 nM
same,Treatment/Control on Day 21,[2],18%
same,Tumor Growth Inhibition (TGI) on Day 21,[2],82%
same,Treatment/Control on Day 21,[3],55%
same,Tumor Growth Inhibition (TGI) on Day 21,[3],45%
same,Treatment/Control on Day 21,[4],75%
same,Tumor Growth Inhibition (TGI) on Day 21,[4],25%
same,Tumor Growth Inhibition (TGI) on Day 21,[5],0%
same,IC50,MEFs KRAS Q61R,550 nM
same,inhibition at 30 µM,hERG,0%

# From PMC9750872, “Ras-mutant cancers are sensitive to small molecule inhibition of V-type ATPases in mice” (Nature biotechnology, 2022)
